The text below walks through data of patent US20230391778A1, “INDOLIN-2-ONE OR PYRROLO -PYRIDIN -2 -ONE DERIVATIVES” (Hoffmann-La Roche Inc., priority 2014, published 2023).

In the first assay the target is T1, mouse ENT-1 transporter (Mus musculus, UniProt Q9JIM1).
T1 construct: expressed in transfected cells
T1 sequence (Q9JIM1 1-460): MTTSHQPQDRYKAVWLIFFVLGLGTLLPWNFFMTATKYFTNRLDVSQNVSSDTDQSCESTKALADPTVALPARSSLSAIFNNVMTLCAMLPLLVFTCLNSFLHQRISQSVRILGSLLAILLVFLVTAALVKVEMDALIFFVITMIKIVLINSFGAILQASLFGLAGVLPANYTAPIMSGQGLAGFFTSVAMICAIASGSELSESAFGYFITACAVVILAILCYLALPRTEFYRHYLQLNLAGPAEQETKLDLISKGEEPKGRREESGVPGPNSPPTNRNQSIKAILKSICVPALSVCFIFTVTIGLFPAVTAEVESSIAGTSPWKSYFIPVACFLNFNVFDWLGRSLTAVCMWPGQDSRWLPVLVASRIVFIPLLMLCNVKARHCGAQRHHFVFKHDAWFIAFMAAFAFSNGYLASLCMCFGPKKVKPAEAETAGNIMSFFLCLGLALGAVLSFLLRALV
The assay is described as follows: Measure of adenosine transport activity (ENT1 adenosine uptake inhibition). The settings on record: stable cells expressing mouse ENT-1, [2,8-3H]-adenosine 6 nM, 20 min. Type of assay: cell-based. The procedure:
To measure adenosine transport activity of ENT-1 mammalian cells, stable cells expressing the mouse ENT-1 transporter were plated on day 1 in 96-well culture plates at the density of 60,000 cells/well, in complete DMEM/F12 medium supplemented with glutamax, 10% FBS and 10 μg/ml puromycin. On day 2, the medium was aspirated and the cells were washed twice with uptake buffer (10 mM Hepes-Tris, pH 7.4 containing 150 mM NaCl, 1 mM CaCl2), 2.5 mM KCl, 2.5 mM MgSO4, 10 mM D-glucose) (UB). For inhibition experiments, cells were then incubated at RT with various concentrations of compounds with 1% DMSO final. Non-specific uptake was defined in the presence of 10 μM S-(4-Nitrobenzyl)-6-thioinosine (NBTI, Sigma Cat #N2255).
The plates were then incubated for 20 min with gentle shaking and the reaction was stopped by aspiration of the mixture and washing (three times) with ice-cold UB. The cells were lysed by the addition of scintillation liquid, shaken 3 hours and the radioactivity in the cells was estimated using a microplates scintillation counter (TopCount NXT, Packard).
For the compound `Cc1ncc(-c2ccc3c(c2)N(c2cc(Cl)nc(C)n2)C(=O)C3(C)C)cn1` [Example 121, 1-(6-chloro-2-methylpyrimidin-4-yl)-3,3-dimethyl-6-(2-methylpyrimidin-5-yl)indolin-2-one], the IC50 stood at 669 nM.
Regarding `Cc1cnnc(N2C(=O)C(C)(C)c3ccc(-c4cnc(C)nc4)cc32)c1` [Example 122, 3,3-dimethyl-1-(5-methylpyridazin-3-yl)-6-(2-methylpyrimidin-5-yl)indolin-2-one], the IC50 was 626 nM.
Still for that read-out and setting: the value for `Cc1ncc(-c2ccc3c(c2)N(c2nc(C)ns2)C(=O)C3(C)C)cn1` [Example 123, 3,3-dimethyl-1-(3-methyl-1,2,4-thiadiazol-5-yl)-6-(2-methylpyrimidin-5-yl)indolin-2-one] was 694 nM.
On the same count and under the same terms, the value for `Cc1ncc(-c2ccc3c(c2)N(c2nccc(Cl)n2)C(=O)C3(C)C)cn1` [Example 128, 1-(4-chloropyrimidin-2-yl)-3,3-dimethyl-6-(2-methylpyrimidin-5-yl)indolin-2-one] was 851 nM.
As to `COCc1ccc(N2C(=O)C(C)(C)c3ccc(-c4cnc(C)nc4)cc32)cn1` [Example 129, 1-(6-(methoxymethyl)pyridin-3-yl)-3,3-dimethyl-6-(2-methylpyrimidin-5-yl)indolin-2-one], the IC50 amounted to 887 nM.
Still for that read-out and setting: the same measure for `Cc1ncc(-c2ccc3c(c2)N(c2cc(C4CC4)cnn2)C(=O)C3(C)C)cn1` [Example 130, 1-(5-cyclopropylpyridazin-3-yl)-3,3-dimethyl-6-(2-methylpyrimidin-5-yl)indolin-2-one]: 2370 nM; for `Cc1cnc(-c2ccc3c(c2)N(c2cncc(C)n2)C(=O)C3(C)C)cn1` [Example 132, 3,3-dimethyl-6-(5-methylpyrazin-2-yl)-1-(6-methylpyrazin-2-yl)indolin-2-one]: 2450 nM; for `Cc1cnc(-c2ccc3c(c2)N(c2cnc(C)nc2)C(=O)C3(C)C)cn1` [Example 133, 3,3-dimethyl-6-(5-methylpyrazin-2-yl)-1-(2-methylpyrimidin-5-yl)indolin-2-one]: 4780 nM.
On the same count and under the same terms, the value for `Cc1ncc(-c2ccc3c(c2)N(c2ccc(C4CC4)nn2)C(=O)C3(C)C)cn1` [Example 134, 1-(6-cyclopropylpyridazin-3-yl)-3,3-dimethyl-6-(2-methylpyrimidin-5-yl)indolin-2-one] was 36 nM; that for `Cc1cccc(-c2ccc3c(c2)N(c2cncc(C)n2)C(=O)C3(C)C)n1` [Example 135, 3,3-dimethyl-1-(6-methylpyrazin-2-yl)-6-(6-methyl-2-pyridyl)indolin-2-one] was 2280 nM; that for `Cc1cnc(-c2ccc3c(c2)N(c2ccc(C)nn2)C(=O)C3(C)C)cn1` [Example 137, 3,3-dimethyl-6-(5-methylpyrazin-2-yl)-1-(6-methylpyridazin-3-yl)indolin-2-one] was 4070 nM.
Same read-out and setting: the value for `Cc1cnc(-c2ccc3c(c2)N(c2ccn(C)n2)C(=O)C3(C)C)cn1` [Example 138, 3,3-dimethyl-1-(1-methyl-1H-pyrazol-3-yl)-6-(5-methylpyrazin-2-yl)indolin-2-one] was 5790 nM; that for `Cc1ncc(-c2ccc3c(c2)N(c2cncc(F)c2)C(=O)C3(C)C)cn1` [Example 142, 1-(5-fluoropyridin-3-yl)-3,3-dimethyl-6-(2-methylpyrimidin-5-yl)indolin-2-one] was 765 nM; that for `Cc1ncc(-c2ccc3c(c2)N(c2cncc(C#N)c2)C(=O)C3(C)C)cn1` [Example 143, 5-(3,3-dimethyl-6-(2-methylpyrimidin-5-yl)-2-oxoindolin-1-yl)nicotinonitrile] was 70 nM.
As for `Cc1cc(-c2ccc3c(c2)N(c2cncc(C)n2)C(=O)C3(C)C)ccn1` [Example 144, 3,3-dimethyl-1-(6-methylpyrazin-2-yl)-6-(2-methyl-4-pyridyl)indolin-2-one], inhibition was half-maximal at 3510 nM (IC50).
The same measure, in the same setting: the same measure for `Cc1cncc(-c2ccc3c(c2)N(c2cncc(C)n2)C(=O)C3(C)C)c1` [Example 145, 3,3-dimethyl-1-(6-methylpyrazin-2-yl)-6-(5-methyl-3-pyridyl)indolin-2-one]: 337 nM; for `Cc1cncc(N2C(=O)C(C)(C)c3ccc(-c4cncc(F)c4)cc32)n1` [Example 146, 6-(5-fluoro-3-pyridyl)-3,3-dimethyl-1-(6-methylpyrazin-2-yl)indolin-2-one]: 2130 nM; for `Cc1cnc(N2C(=O)C(C)(C)c3ccc(-c4ccnc(C)c4)cc32)cn1` [Example 147, 3,3-dimethyl-1-(5-methylpyrazin-2-yl)-6-(2-methyl-4-pyridyl)indolin-2-one]: 9000 nM.
Same read-out and setting: the value for `Cc1ccc(-c2ccc3c(c2)N(c2cnc(C)cn2)C(=O)C3(C)C)cn1` [Example 148, 3,3-dimethyl-1-(5-methylpyrazin-2-yl)-6-(6-methyl-3-pyridyl)indolin-2-one] was 402 nM; that for `Cc1cncc(-c2ccc3c(c2)N(c2cnc(C)cn2)C(=O)C3(C)C)c1` [Example 149, 3,3-dimethyl-1-(5-methylpyrazin-2-yl)-6-(5-methyl-3-pyridyl)indolin-2-one] was 207 nM; that for `Cc1cnc(N2C(=O)C(C)(C)c3ccc(-c4cncc(F)c4)cc32)cn1` [Example 150, 6-(5-fluoro-3-pyridyl)-3,3-dimethyl-1-(5-methylpyrazin-2-yl)indolin-2-one] was 1480 nM.
As for `Cc1cnc(N2C(=O)C(C)(C)c3ccc(-c4cnc(C)c(F)c4)cc32)cn1` [Example 151, 6-(5-fluoro-6-methyl-3-pyridyl)-3,3-dimethyl-1-(5-methylpyrazin-2-yl)indolin-2-one], half-maximal inhibition (IC50) was put at 37 nM.
Still for that read-out and setting: the same measure for `Cc1ncc(-c2ccc3c(c2)N(c2cncc(C(F)(F)F)c2)C(=O)C3(C)C)cn1` [Example 152, 3,3-dimethyl-6-(2-methylpyrimidin-5-yl)-1-(5-(trifluoromethyl)pyridin-3-yl)indolin-2-one]: 317 nM; for `Cc1ncc(-c2ccc3c(c2)N(c2cncc(CO)c2)C(=O)C3(C)C)cn1` [Example 153, 1-(5-(hydroxymethyl)pyridin-3-yl)-3,3-dimethyl-6-(2-methylpyrimidin-5-yl)indolin-2-one]: 291 nM.
On the same count and under the same terms, the same measure for `Cc1cncc(N2C(=O)C(C)(C)c3ccc(-c4ccnc(C)n4)cc32)n1` [Example 154, 3,3-dimethyl-1-(6-methylpyrazin-2-yl)-6-(2-methylpyrimidin-4-yl)indolin-2-one]: 4470 nM.
`CCc1cncc(N2C(=O)C(C)(C)c3ccc(-c4cnc(C)nc4)cc32)c1` [Example 156, 1-(5-ethylpyridin-3-yl)-3,3-dimethyl-6-(2-methylpyrimidin-5-yl)indolin-2-one] came in with an IC50 of 300 nM.

In the next assay the test system is L-687,414-induced hyperlocomotion. The assay is described as follows: L-687,414-induced hyperlocomotion. It counts as in vivo, mouse. The settings on record: Mus musculus; Dose ip 30 mg/kg, mice, 50 mg/kg s.c. L-687,414. The procedure:
The described compounds of formula I reduce L-687,414-induced hyperlocomotion. This was assessed by using a computerized Digiscan 16 Animal Activity Monitoring System (Omnitech Electronics, Columbus, Ohio) to quantify locomotor activity. Animals were kept under a 12 h light/dark cycle and experiments were performed during the light period. Each activity monitoring chamber consisted of a Plexiglas box (41×41×28 cm; W×L×H) with sawdust bedding on the floor surrounded by invisible horizontal and vertical infrared sensor beams. The test boxes were divided by a Plexiglas cross providing each mouse with 20×20 cm of moving space. Cages were connected to a Digiscan Analyzer linked to a computer that constantly collected the beam status information. Records of photocell beam interruptions for individual animals were taken every 5 min over the duration of the experimental session and the sum of the first 6 periods was used as the final parameter. At least 8 mice were used in each treatment group. Compounds were administered either p.o. 15 min before a s.c. injection of 50 mg/kg of L-687,414, or i.p. at the same time as a s.c. injection of 50 mg/kg of L-687,414. Mice were then transferred from their home cage to the recording chambers for a 15-min habituation phase allowing free exploration of the new environment. Horizontal activity was then recorded for a 30-min time period. The % inhibition of L-687,414-induced hyperlocomotion was calculated according to the equation:
((Veh+L-687,414 horizontal activity−drug+L-687,414 horizontal activity)/Veh+L-687,414 horizontal activity)×100
ID50 values, defined as doses of each compound producing 50% inhibition of L-687,414-induced hyperlocomotion, were calculated by linear regression analysis of a dose-response data using an Excel-based computer-fitting program.
As data was not presupposed to be normally distributed, groups treated with test compounds were statistically compared with the control (vehicle-treated) group using one-tailed Mann Whitney U tests. In statistics, the Mann-Whitney U test (also called the Mann-Whitney-Wilcoxon (MWW) or Wilcoxon rank-sum test) is a non-parametric statistical hypothesis test for assessing whether one of two samples of independent observations tends to have larger values than the other. It is one of the most well-known non-parametric significance tests. […] P values given in table 1 are one-tailed since only decreases in locomotion were expected and tested for (Mann, H. B., Whitney, D. R. (1947), “On a Test of Whether one of Two Random Variables is Stochastically Larger than the Other”, Annals of Mathematical Statistics, 18 (1), 50-60).
As to `Cc1ncc(-c2cc3c(cn2)C(C)(C)C(=O)N3c2ccn(C)n2)cn1` [Example 16, 3,3-Dimethyl-1-(1-methyl-1H-pyrazol-3-yl)-6-(2-methylpyrimidin-5-yl)-1H-pyrrolo[3,2-c]pyridin-2(3H)-one], the inhibition in vivo at 30 mg/kg came out at 78.3%.
